“Also recorded” adds a separate entry of the source.
How the values were obtained:
HCT116 cells [1] = test: MTT assay; format: cell-based, human; conditions: HCT116, 24 hours-STS before and during oxaliplatin 40 μM 24 hours
Excerpt: The MTT [3-(4,5-Dimethylthiazol-2-yl)-2,5-diphenyltetrazolium bromide] assay is a quantitative colorimetric assay used to determine cell viability (Mosmann, 1983). MTT is characterized by a yellow colour, and upon its reduction to formazan by mitochondrial dehydrogenases, turns into a purple molecule, which has an absorbance peak at 570 nm. The absorbance is proportional to the amount of formazan produced, thus giving a measure of living cells, since the reaction only occur in living and metabolically active cells (Mosmann, 1983).
To evaluate viability, cells were seeded into a 96-well plate (2000 cells per well) in CTR medium. 24 hours later, cells were rinsed twice in 1×PBS, and CTR or STS medium was added. […] At the end of the experiment, medium was removed and cells were incubated with 100 μl of MTT (Sigma-Aldrich, Cat. #: M2128) solution (0.5 mg/ml, dissolved in medium) per well, for 3 hours at 37° C. in the dark. Next, 100 μl of lysis buffer (10% SDS, HCl 0.01M) were added to each well to dissolve formazan crystals and plates were incubated overnight at 37° C. Absorbance was recorded at the wavelength of 570 nm using a microplate reader (Infinite M200 TECAN). The absorbance values of media background were subtracted from the absorbance of each sample. No-treated samples were used as reference values (100% survival) to normalize the absorbance of treated samples.

HCT116 cells [2] = test: Erythrosin B exclusion assay; format: cell-based, human; conditions: HCT116, 24 hours-STS before and during oxaliplatin 40 μM 24 hours
Method: Erythrosin B is a vital dye that is impermeable to biological membranes, thus staining only unviable cells with disintegrated membranes (Kim et al., 2016).
The next day, cells were rinsed twice in 1×PBS and CTR or STS medium was added. […] Cell death was measured by erythrosine B exclusion assay. Cell suspension was diluted 1:1 with erythrosin B 0.1% in PBS (Sigma-Aldrich, Cat. #: 200964), then cells were counted in a Bürker chamber, and percentage of cell death was calculated as the number of Erythrosin B-positive cells with respect to the total number of cells.

HCT116 cells [3] = test: Muse cell viability assay (percentage of dead cells); conditions: for effect on STS + vitamin C cytotoxicity: HCT116, STS medium supplemented with transferrin, vitamin C 350 μM
[4] = test system: KRAS mutant CRC cells (HCT116, DLD1, CT26.WT); conditions: for effect on cell death induction by STS and vitamin C cotreatment: STS condition, GSH 5 mM or NAC 5 mM co-treated with vitamin C 350 μM, 24 hours
FTH = FTH protein expression in cells (western blot); format: cell-based, human and murine; conditions: HCT116, CTR and STS, hemin 20 μM 12 hours
Method: Cells were washed twice in ice-cold PBS and lysates were prepared in RIPA lysis buffer (50 mM Tris HCl pH 7.4, 150 mM NaCl, 1% NP-40, 0.25% deoxycholic acid, 1 mM EDTA) supplemented with protease and phosphatase inhibitors (protease inhibitor cocktail set III EDTA-free, Calbiochem, Cat. #: S39134; PhosStop, Roche), Samples were sonicated (bioruptor plus, diogenode) and centrifuged at 16.1 g for 30 minutes at 4° C. Tumor tissues were collected and snap frozen in liquid nitrogen immediately after mice were sacrificed, and stored in -80° C. until use. […] Protein concentrations were determined by BCA assay (Thermo Fisher Scientific, Cat. #: 23225). Proteins were diluted in 1× Laemmli sample buffer, boiled at 95° C. for 5 minutes and 30 μg of total proteins were separated by using SDS-PAGE and analyzed by western blotting by standard procedures. […] Membranes were incubated overnight at 4° C. with gentle shaking with the following primary antibodies: […] ADI-SPA894), FTH (1:1000, Cell Signaling, Cat. #: 3998), AMPK (1:1000, Cell Signaling, Cat. #: 2532), phospho-[…] AMPK (1:1000, Cell Signaling, Cat. #: 2535), eIF2a (1:1000, Cell signaling, Cat. #: 5324), phospho […] eIF2a (1:1000, Cell signaling, Cat. #: 3597), AKT (1:1000, Cell Signaling, Cat. #: 9272), phospho-[…] […] Bands intensity was quantified with NIH Image J software (version 1.48v).

HO-1 = HO-1 expression in HCT116 (qPCR, western blot); format: cell-based, human; conditions: HCT116, CTR and STS, hemin 20 μM 12 hours
Method: Cells were washed twice in ice-cold PBS and lysates were prepared in RIPA lysis buffer (50 mM Tris HCl pH 7.4, 150 mM NaCl, 1% NP-40, 0.25% deoxycholic acid, 1 mM EDTA) supplemented with protease and phosphatase inhibitors (protease inhibitor cocktail set III EDTA-free, Calbiochem, Cat. #: S39134; PhosStop, Roche), Samples were sonicated (bioruptor plus, diogenode) and centrifuged at 16.1 g for 30 minutes at 4° C. Tumor tissues were collected and snap frozen in liquid nitrogen immediately after mice were sacrificed, and stored in -80° C. until use. […] Protein concentrations were determined by BCA assay (Thermo Fisher Scientific, Cat. #: 23225). Proteins were diluted in 1× Laemmli sample buffer, boiled at 95° C. for 5 minutes and 30 μg of total proteins were separated by using SDS-PAGE and analyzed by western blotting by standard procedures. […] Membranes were incubated overnight at 4° C. with gentle shaking with the following primary antibodies: […] ADI-SPA894), FTH (1:1000, Cell Signaling, Cat. #: 3998), AMPK (1:1000, Cell Signaling, Cat. #: 2532), phospho-[…] […] Bands intensity was quantified with NIH Image J software (version 1.48v). […] Resulting cDNA (1/20 v/v) was analyzed by real-time polymerase reaction (qRT-PCR) using TaqMan MBG probes with FAM reporter dyes. […]

ROS in HCT116 cells = test: CellROX reactive oxygen species measurement; format: cell-based, human; conditions: HCT116, GSH one hour prior to vitamin C 1 mM
Method: Intracellular reactive-oxygen species (ROS) were measured using the CellROX oxidative stress reagents (Life Technologies, Cat. #: 10422). CellROX fluorogenic probe is designed to measure reactive-oxygen species (ROS) in live cells. […] For ROS measurement, cells were seeded in 10 cm petri dish (4×10^5 cells in CTR medium). After 24 hours cells were rinsed twice in 1×PBS and CTR or STS medium was added. 24 hours later, cells were trypsinized, resuspended in their respective media, and treated with 1 mM sodium ascorbate and 1 μM CellROX deep red reagent in the dark, for 30 minutes at 37° C. and 5% CO2. Then, fluorescence was immediately analyzed by flow cytometry (Attune NxT flow cytometer). Data were processed by Kaluza analysis software (Beckman coulter, version 2.0). Data were expressed as fold change of the median fluorescent intensity (MFI) of each treated sample versus the MFI of control sample.

**Q.** Which “percentage of metabolically active cells (MTT)” value (HCT116 cells [1]) does the source give for `O=C1[O][Pt]2([NH][C@@H]3CCCC[C@H]3[NH]2)[O]C1=O` [oxaliplatin] here?
**A.** significantly decrease the percentage of metabolically active cells

**Q.** What about the “percentage of cell death” value (HCT116 cells [2]) of the same molecule?
**A.** increase the percentage of cell death

**Q.** How did the “effect on cell death upon STS + vitamin C” value (HCT116 cells [3]; HCT116, STS, MnTMPyP 50 μM before vitamin C 350 μM 24 hours) turn out when MnTMPyP was run?
**A.** inhibited cell death upon combinatorial treatment

**Q.** Which “effect on STS + vitamin C cytotoxicity” value (HCT116 cells [3]) does the source give for “holo-transferrin: Iron bound-transferrin” here?
**A.** able to rescue the observed cytotoxicity; also recorded: reversed STS+vitamin C-mediated toxicity

**Q.** For hemin, which “effect on cancer cell death induced by vitamin C alone or with STS” value ([4]; hemin 20 μM 3 hours before vitamin C 350 μM, CTR or STS) is on record?
**A.** able to reverse cancer cell death

**Q.** What about the “FTH protein expression level” value (FTH) of the same molecule?
**A.** increases

**Q.** What about the “HO-1 protein expression level” value (HO-1) of the same molecule?
**A.** increases

**Q.** `CC(=O)N[C@@H](CS)C(=O)O` [NAC, N-acetyl cysteine] was tested. Which “effect on cell death induction by STS and vitamin C cotreatment” value [4] did it give?
**A.** able to revert the massive cell death induction

**Q.** `C=CC1=C(C)c2cc3[n-]c(cc4nc(cc5[n-]c(cc1n2)c(C)c5C=C)C(C)=C4CCC(=O)O)c(CCC(=O)O)c3C.[Zn+2]` [ZnPP, zinc protoporphyrin] was tested. Which “susceptibility to vitamin C toxicity” value ([4]; control medium, ZnPP 20 μM 3 hours before vitamin C 700 μM 24 hours) did it give?
**A.** more susceptible to vitamin C toxicity

**Q.** apo-transferrin: iron-free transferrin was tested. Which “effect on STS + vitamin C cytotoxicity” value (HCT116 cells [3]) did it give?
**A.** not

**Q.** With `CC(=O)N(O)CCCCCNC(=O)CCC(=O)N(O)CCCCCNC(=O)CCC(=O)N(O)CCCCCN` [DFO, desferrioxamine] as the molecule, how does the “effect on vitamin C-induced cytotoxicity” value (HCT116 cells [3]; HCT116, STS, DFO 500 μM pre-treatment, cells washed before vitamin C 350 μM) read?
**A.** rescued vitamin C-induced cell cytotoxicity

**Q.** With `N[C@@H](CCC(=O)N[C@@H](CS)C(=O)NCC(=O)O)C(=O)O` [GSH, glutathione] as the molecule, how does the “effect on cell death induction by STS and vitamin C cotreatment” value [4] read?
**A.** able to revert the massive cell death induction

**Q.** What about the “effect on increase in ROS mediated by STS and STS+vitamin C” value (ROS in HCT116 cells) of the same molecule?
**A.** fully reversed the increase in ROS

B1: catalase: Catalase from bovine liver, membrane-impermeable ROS scavenger decomposing hydrogen peroxide (protein, UniProt P00432 2-527, looked up)
Catalase: ADNRDPASDQMKHWKEQRAAQKPDVLTTGGGNPVGDKLNSLTVGPRGPLLVQDVVFTDEMAHFDRERIPERVVHAKGAGAFGYFEVTHDITRYSKAKVFEHIGKRTPIAVRFSTVAGESGSADTVRDPRGFAVKFYTEDGNWDLVGNNTPIFFIRDALLFPSFIHSQKRNPQTHLKDPDMVWDFWSLRPESLHQVSFLFSDRGIPDGHRHMNGYGSHTFKLVNANGEAVYCKFHYKTDQGIKNLSVEDAARLAHEDPDYGLRDLFNAIATGNYPSWTLYIQVMTFSEAEIFPFNPFDLTKVWPHGDYPLIPVGKLVLNRNPVNYFAEVEQLAFDPSNMPPGIEPSPDKMLQGRLFAYPDTHRHRLGPNYLQIPVNCPYRARVANYQRDGPMCMMDNQGGAPNYYPNSFSAPEHQPSALEHRTHFSGDVQRFNSANDDNVTQVRTFYLKVLNEEQRKRLCENIAGHLKDAQLFIQKKAVKNFSDVHPEYGSRIQALLDKYNEEKPKNAVHTYVQHGSHLSAREKANL
**Q.** For B1, which “effect on STS-mediated sensitization to vitamin C” value (HCT116 cells [3]; HCT116, STS, catalase 50 U/ml prior to vitamin C 350 μM 24 hours) is on record?
**A.** able to revert STS-mediated sensitization to vitamin C
